Measured values published in patent US9212151B2, “Heterocyclic compounds useful for kinase inhibition” (Amitech Therapeutic Solutions, Inc., priority 2010, dated 2015).

Assay: MTT cell viability assay, compounds at 5, 1 and 0.2 μM, 48 hours
Type: cell-based
Conditions: human, A549 tumor cells
Experimental: MTT assay is used to determine cell proliferation, percent of viable cells, and cytotoxicity. MTT (3-[4,5-dimethylthiazol-2-yl]2,5-diphenyltetrazolium bromide) is a yellow dye, which can be absorbed by the living cells and be reduced to purplish blue formazan crystals by succinate tetrazolium reductase in mitochondria. Formazan formation can therefore be used to assess and determine the survival rate of cells.
Tumor cells (A549) were plated at 2500 cells/well of a 96-well plate in complete growth medium (DMEM+10% FBS, antibiotic/antimycotic, fungizone, L-glutamine, sodium pyruvate, and non-essential amino acids). The cells were allowed to grow overnight. After cell proliferation, the cells were washed and re-suspended in fresh culture medium and placed in 96 well plates.
To each of the 96 well plates containing A549 and a control, 5, 1, and 0.2 μM of the exemplary compounds 1-200 were add. The 96 well plates were incubated for 48 hours. Cell viability was measured by adding MTT (Sigma) at 5 mg/ml for 4 h to the cells and then removing the medium and resuspending each well in 50 μl DMSO to solubilize the crystals. The 96-well plates were read on a plate-scanning spectrophotometer (BioTek) at an absorbance of […]. The survival rate of cells was calculated based on the measurement of absorption at the 570 nm wavelength by enzyme immunoassay analyzer.

SMILES | viability at 48 h, 0.2 µM [%] | viability at 48 h, 1 µM [%] | viability at 48 h, 5 µM [%]
Nc1nccc(Oc2ccc(-c3nnc(Nc4cccc(C(F)(F)F)c4)[nH]3)cc2)n1 [Compound 1] | > 70 | 50 to 70 | 50 to 70
Nc1cc(Oc2ccc(-c3nnc(Nc4cccc(C(F)(F)F)c4)[nH]3)cc2)ncn1 [Compound 2] | > 70 | > 70 | > 70
FC(F)(F)c1cccc(Nc2nnc(-c3ccc(Oc4ccncc4)cc3)[nH]2)c1 [Compound 3] | > 70 | 50 to 70 | < 50
Nc1cc(Oc2ccc(-c3nnc(Nc4cccc(C(F)(F)F)c4)[nH]3)cc2)ccn1 [Compound 4] | > 70 | > 70 | 50 to 70
FC(F)(F)c1cccc(Nc2nnc(-c3ccc(Oc4cc(Cl)ccn4)cc3)[nH]2)c1 [Compound 5] | > 70 | > 70 | > 70
FC(F)(F)c1cccc(Nc2nnc(-c3ccc(Oc4ccnc(Cl)c4)cc3)[nH]2)c1 [Compound 6] | > 70 | 50 to 70 | < 50
NS(=O)(=O)c1cnccc1Oc1ccc(-c2nnc(Nc3cccc(C(F)(F)F)c3)[nH]2)cc1 [Compound 7] | > 70 | > 70 | > 70
FC(F)(F)c1cccc(Nc2nnc(-c3ccc(Oc4ccncc4C(F)(F)F)cc3)[nH]2)c1 [Compound 8] | > 70 | > 70 | 50 to 70
CSc1nc(Oc2ccc(-c3nnc(Nc4cccc(C(F)(F)F)c4)[nH]3)cc2)c2cc[nH]c2n1 [Compound 9] | > 70 | > 70 | > 70
FC(F)(F)c1cccc(Nc2nnc(-c3ccc(Oc4ncnc5[nH]ccc45)cc3)[nH]2)c1 [Compound 10] | > 70 | > 70 | 50 to 70
COc1ccc2c(Oc3ccc(-c4nnc(Nc5cccc(C(F)(F)F)c5)[nH]4)cc3)ccnc2c1 [Compound 11] | > 70 | > 70 | 50 to 70
FC(F)(F)c1cccc(Nc2nnc(-c3ccc(Oc4ccnc5ccccc45)cc3)[nH]2)c1 [Compound 12] | > 70 | > 70 | 50 to 70
Nc1cc(Oc2cccc(-c3nnc(Nc4cccc(C(F)(F)F)c4)[nH]3)c2)nc(N)n1 [Compound 13] | > 70 | > 70 | 50 to 70
CSc1nc(N)cc(Oc2cccc(-c3nnc(Nc4cccc(C(F)(F)F)c4)[nH]3)c2)n1 [Compound 14] | 50 to 70 | 50 to 70 | 50 to 70
Nc1nccc(Oc2cccc(-c3nnc(Nc4cccc(C(F)(F)F)c4)[nH]3)c2)n1 [Compound 15] | > 70 | > 70 | > 70
Nc1cc(Oc2cccc(-c3nnc(Nc4cccc(C(F)(F)F)c4)[nH]3)c2)ncn1 [Compound 16] | > 70 | > 70 | > 70
FC(F)(F)c1cccc(Nc2nnc(-c3cccc(Oc4ccncc4)c3)[nH]2)c1 [Compound 17] | > 70 | 50 to 70 | 50 to 70
Nc1cc(Oc2cccc(-c3nnc(Nc4cccc(C(F)(F)F)c4)[nH]3)c2)ccn1 [Compound 18] | 50 to 70 | < 50 | < 50
NS(=O)(=O)c1cnccc1Oc1cccc(-c2nnc(Nc3cccc(C(F)(F)F)c3)[nH]2)c1 [Compound 19] | > 70 | > 70 | > 70
FC(F)(F)c1cccc(Nc2nnc(-c3cccc(Oc4ccncc4C(F)(F)F)c3)[nH]2)c1 [Compound 20] | > 70 | > 70 | 50 to 70
